From article PMC12534982 (Journal of Experimental & Clinical Cancer Research : CR, 2025)

How the values were obtained:
Assay type in all cases: cell-based, human
colorectal cancer cells [1] = assay: Neutral comet assay; settings: 25 µM
Experimental: The assay was conducted as described in [20]. Cancer cells (2–3 × 10^5) were cultured in 6-well plates and treated with DMSO or NK-A 17E-233I (25 µM) for 1 or 24 h. After treatment, the cells were harvested and suspended in Comet Low Melting Agarose (LMA; Trevigen). Once the LMA solidified, the glass slides (CometSlide) were placed in a cell lysis buffer at 4 °C overnight. Electrophoresis was performed using a comet assay electrophoresis system (21 V for 40 min). The slides were subsequently washed and stained with SYBR® Gold dye (Invitrogen) in the dark for 30 min. DNA migration was observed using a fluorescence microscope (AF6000, Leica) equipped with a HCX PL APO 63x (NA = 1.4) oil objective. Comet tail lengths were measured with ImageJ/FIJI, analyzing over 100 cells per each condition.

colorectal cancer cells [2] = assay: Live-cell imaging; settings: 25 µM, 24 h time-lapse
Experimental: Following staining, cells were treated with either DMSO or NK-A 17E-233I (25 µM) and subjected to time-lapse imaging for another 24 h, with an acquisition time of 1 h between frames. Cells were maintained at 37 °C with 5% CO2 and 95% humidity using Okolab chambers and monitored with a Leica DMi8 microscope equipped with a Leica DFC9000GT camera. Images were captured in brightfield and at 405 nm to visualize the nuclei using a 20X objective (HC PL FLUOTAR 20x/0.75). Images were processed using Leica Application Suite X (LAS X) Life Science Microscope Software (v3.5.5.19976, RRID:SCR_013673).

SW620 cells = assay: DHODH-dependent respiration (permeabilized cells); settings: 24 h; NK-A 17E-233I 25 µM, Brequinar 100 µM; excess exogenous DHO
Experimental: Cells were resuspended in MiR05 medium and transferred into the chambers of the Oxygraph-2k instruments. The OCR in digitonin-permeabilized cells was monitored in the presence of the complex I inhibitor (0.5 μM rotenone), 1 mM DHO, 3 mM ADP, 10 μM cytochrome c, and 30 μM Leflunomide. DHODH-mediated respiration was calculated by subtracting the residual respiration rate after the addition of 30 μM Leflunomide from the respiration rate measured in the presence of 0.5 μM rotenone, 1 mM DHO, 3 mM ADP, and 10 μM cytochrome c.

COc1cc(C)c(Oc2cc(C)cc(O)c2O)c(O)c1 [NK-A 17E-233I]
comet tails (DNA double-strand breaks) (colorectal cancer cells [1]): longer comet tails | progression through mitosis (G2/M) (colorectal cancer cells [2]): failed to progress through mitosis | DHODH-mediated oxygen consumption rate (SW620 cells): reduced
